Patent US9321721B2, “Kinase inhibitors” (Allergan, Inc., priority 2013, dated 2016)
“Also recorded” adds a separate entry of the source.

Target: VEGFR2 (purified cytoplasmic domain KDR protein) (Homo sapiens (Human), UniProt P35968)
Assay: VEGFR2 Kinase Assay (biochemical KDR kinase assay, ELISA readout)
Details: for IC50: 2.7 μM ATP, poly-Glu-Tyr (4:1) substrate, 15 minute incubation at 30° C.; for VEGFR2 potency as shown in this assay (in words): qualitative ranking based on the Table 2 data
Experimental: VEGFR2 kinase potency of select analogs was determined by the following assay:
Biochemical KDR kinase assays were performed in 96 well microtiter plates that were coated overnight with 75 μg/well of poly-Glu-Tyr (4:1) in 10 mM Phosphate Buffered Saline (PBS), pH 7.4. The coated plates were washed with 2 mls per well PBS+0.05% Tween-20 (PBS-T), blocked by incubation with PBS containing 1% BSA, then washed with 2 mls per well PBS-T prior to starting the reaction. Reactions were carried out in 100 μL reaction volumes containing 2.7 μM ATP in kinase buffer (50 mM Hepes buffer pH 7.4, 20 mM MgCl2, 0.1 mM MnCl2 and 0.2 mM Na3VO4). Test compounds were reconstituted in 100% DMSO and added to the reaction to give a final DMSO concentration of 5%. Reactions were initiated by the addition 20 ul per well of kinase buffer containing 200-300 ng purified cytoplasmic domain KDR protein (BPS Bioscience, San Diego, Calif.). Following a 15 minute incubation at 30° C., the reactions were washed 2 mls per well PBS-T. 100 μl of a monoclonal anti-phosphotyrosine antibody-peroxidase conjugate diluted 1:10,000 in PBS-T was added to the wells for 30 minutes. Following a 2 mls per well wash with PBS-Tween-20, 100 μl of O-Phenylenediamine Dihydrochloride in phosphate-citrate buffer, containing urea hydrogen peroxide, was added to the wells for 7-10 minutes as a colorimetric substrate for the peroxidase. The reaction was terminated by the addition of 100 μl of 2.5N H2SO4 to each well and read using a microplate ELISA reader set at 492 nm. IC50 values for compound inhibition were calculated directly from graphs of optical density (arbitrary units) versus compound concentration following subtraction of blank values.

Chain of VEGFR2 (purified cytoplasmic domain KDR protein) (P35968 786-1356): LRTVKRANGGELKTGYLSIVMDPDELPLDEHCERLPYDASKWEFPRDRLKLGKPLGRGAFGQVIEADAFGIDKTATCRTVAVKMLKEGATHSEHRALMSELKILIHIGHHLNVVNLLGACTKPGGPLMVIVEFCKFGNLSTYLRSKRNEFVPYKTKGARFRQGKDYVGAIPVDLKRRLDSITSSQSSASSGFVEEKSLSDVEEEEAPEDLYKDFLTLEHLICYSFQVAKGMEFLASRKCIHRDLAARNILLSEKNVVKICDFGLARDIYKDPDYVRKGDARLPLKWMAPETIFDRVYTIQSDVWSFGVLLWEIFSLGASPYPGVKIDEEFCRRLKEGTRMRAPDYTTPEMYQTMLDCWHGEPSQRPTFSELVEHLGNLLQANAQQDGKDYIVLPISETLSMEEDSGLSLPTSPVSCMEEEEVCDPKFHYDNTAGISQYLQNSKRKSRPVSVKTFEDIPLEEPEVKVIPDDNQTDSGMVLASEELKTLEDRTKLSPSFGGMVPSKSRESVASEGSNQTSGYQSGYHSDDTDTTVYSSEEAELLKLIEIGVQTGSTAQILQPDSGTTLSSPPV

Row | SMILES | IC50 [nM] | VEGFR2 potency as shown in this assay (in words)
1 | NC(=O)/C=C(/c1ccccc1)c1ccc(NC(=O)Nc2cc(C(F)(F)F)ccc2F)cc1 [Example 1, (2Z)-3-{4-[({[2-fluoro-5-(trifluoromethyl)phenyl]amino}carbonyl)amino]phenyl}-3-phenylacrylamide] | 626 | excellent VEGFR2 potency
2 | COc1cccc(/C(=C/C(N)=O)c2ccc(NC(=O)Nc3cc(C(F)(F)F)ccc3F)cc2)c1 [Example 2, (2E)-3-{4-[({[2-fluoro-5-(trifluoromethyl)phenyl]amino}carbonyl)amino]phenyl}-3-(3-methoxyphenyl)acrylamide] | 945 | excellent VEGFR2 potency
3 | COc1ccc(/C(=C/C(N)=O)c2ccc(NC(=O)Nc3cc(C(F)(F)F)ccc3F)cc2)cc1 [Example 3, (2E)-3-{4-[({[2-fluoro-5-(trifluoromethyl)phenyl]amino}carbonyl)amino]phenyl}-3-(4-methoxyphenyl)acrylamide] | 457 | excellent VEGFR2 potency; also recorded: best VEGFR2 potency
4 | NC(=O)/C=C(/c1ccccc1)c1cccc(NC(=O)Nc2cc(C(F)(F)F)ccc2F)c1 [Example 4, (2Z)-3-{3-[({[2-fluoro-5-(trifluoromethyl)phenyl]amino}carbonyl)amino]phenyl}-3-phenylacrylamide] | > 10000 | 
5 | NC(=O)/C=C/c1cccc(NC(=O)Nc2cc(C(F)(F)F)ccc2F)c1 [Example 5, (2E)-3-{3-[({[2-fluoro-5-(trifluoromethyl)phenyl]amino}carbonyl)amino]phenyl}acrylamide] | > 10000 | 
6 | NC(=O)/C=C/c1ccc(NC(=O)Nc2cc(C(F)(F)F)ccc2F)cc1 [Example 6, (2E)-3-{4-[({[2-fluoro-5-(trifluoromethyl)phenyl]amino}carbonyl)amino]phenyl}acrylamide] | > 10000 | 
7 | NC(=O)/C=C\c1ccc(NC(=O)Nc2cc(C(F)(F)F)ccc2F)cc1 [Example 7, (2Z)-3-{4-[({[2-fluoro-5-(trifluoromethyl)phenyl]amino}carbonyl)amino]phenyl}acrylamide] | 2790 | excellent VEGFR2 potency
